Here are results for 15 compounds from patent US12071430B2 (The Johns Hopkins University, priority 2011, dated 2024).

“Also recorded” adds a separate entry of the source. Where two headings read alike, the source gives them in different places.

The subject of one data set is HUVEC. Put plainly: HUVEC proliferation, [3H]-thymidine incorporation assay. It counts as cell-based, human. As to conditions: for Proliferation (IC50/IC50 Itra): HUVEC IC50 relative to itraconazole; for IC50: [3H]-thymidine incorporation, unit inferred, values in μM, read-out: Proliferation IC50. As to the method: The inhibitory effects of the new analogs on HUVEC proliferation were measured using a [3H]-thymidine incorporation assay. The log P values, used as an indicator of lipophilicity, were calculated using ALOGPS2.1 software. Aqueous solubility is a key physiochemical property relevant for oral absorption. We determined the solubility of each analog in 0.001 N HCl (pH=3), which represents the acidic human gastric fluid.
HUVEC Culture and Proliferation Assays. HUVEC (Lonza) were grown in EGM-2 bullet kit media (Lonza) and used at passage eight or lower. The H thymidine incorporation assays were conducted as previously described. Briefly, cells were seeded on 96-well plate at a concentration of 2000 cells/well and allowed to settle overnight. Drugs were added to each well in triplicate. After 24 hours, cells were treated with 1 μCi of [3H] thymidine for 6 h. Then cells were harvested and transferred to filtermats. The scintillation were counted and IC50 were determined using Prism software (version 6.0).

Another data set addresses T1, CYP3A4 (Homo sapiens, UniProt P08684).
T1 construct: purchased ThermoFisher P2857; host or cells: baculosomes (insect-cell microsomes, own knowledge)
Put plainly: CYP3A4 enzyme assay (Vivid CYP3A4 Green Screening Kit). It counts as in vitro ADME. The following applies: for CYP3A4 Inhibition (compared to intracozanole at 1 um): % enzyme inhibition at 1 uM drug / % enzyme inhibition at 1 uM itraconazole; for CYP3A4 inhibition, in words: dose response or compared with itraconazole; for CYP3A4 inhibition at 1 μM, in words: initial screening at 1 μM. Here is the method:
And CYP3A4 inhibition was initially determined using a cell-free fluorescence-based assay at a final concentration of 1 μM (Table 2).
CYP3A4 enzyme assay. CYP3A4 enzyme activity was tested using Vivid™ CYP3A4 Green Screening Kit (ThermoFisher, #P2857) using the manufacturer's protocol. Briefly, CYP3A4 baculosomes and drugs were incubated 10 min at 37° C. Then Vivid® Substrates were added and the fluorescence (ex/em:485/520) were read every 1 min for 60 minute.

T1 sequence (P08684 whole entry): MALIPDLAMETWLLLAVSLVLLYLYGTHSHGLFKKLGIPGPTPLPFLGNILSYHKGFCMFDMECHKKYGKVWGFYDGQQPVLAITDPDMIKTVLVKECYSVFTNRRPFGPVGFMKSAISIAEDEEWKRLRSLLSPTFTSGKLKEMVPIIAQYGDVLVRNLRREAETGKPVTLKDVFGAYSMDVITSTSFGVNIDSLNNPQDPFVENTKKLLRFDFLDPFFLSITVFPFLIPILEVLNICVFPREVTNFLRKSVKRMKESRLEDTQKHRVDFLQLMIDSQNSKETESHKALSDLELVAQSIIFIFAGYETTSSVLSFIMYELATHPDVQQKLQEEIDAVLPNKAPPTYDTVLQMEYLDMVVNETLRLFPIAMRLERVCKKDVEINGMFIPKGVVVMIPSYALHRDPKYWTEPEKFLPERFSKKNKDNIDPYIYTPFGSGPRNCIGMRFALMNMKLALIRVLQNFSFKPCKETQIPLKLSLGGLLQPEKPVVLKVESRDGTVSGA

Regarding `CCC(C)n1ncn(-c2ccc(N3CCN(c4ccc(OC[C@@H]5CO[C@@](Cn6ccnc6)(c6ccc(Cl)cc6Cl)O5)cc4)CC3)cc2)c1=O` (stereo partly drawn) [Compound 33, 4-(4-(4-(4-(((2S,4R)-2-((1H-imidazol-1-yl)methyl)-2-(2,4-dichlorophenyl)-1,3-dioxolan-4-yl)methoxy)phenyl)piperazin-1-yl)phenyl)-1-sec-butyl-1H-1,2,4-triazol-5(4H)-one], the “HUVEC proliferation / anti-angiogenic potency compared to itraconazole, in words” value in the data set on HUVEC (HUVEC) is “higher potency”. Moreover, in the data set with HUVEC, the “Proliferation (IC50/IC50 Itra)” value is listed as 0.5. Moreover, the “CYP3A4 Inhibition (compared to intracozanole at 1 um)” value on CYP3A4 was 1.18.

As to `CCC(C)n1ncn(-c2ccc(N3CCN(c4ccc(OC[C@@H]5CO[C@@](Cn6cccn6)(c6ccc(Cl)cc6Cl)O5)cc4)CC3)cc2)c1=O` (stereo partly drawn) [Compound 34, 4-(4-(4-(4-(((2S,4R)-2-((1H-pyrazol-1-yl)methyl)-2-(2,4-dichlorophenyl)-1,3-dioxolan-4-yl)methoxy)phenyl)piperazin-1-yl)phenyl)-1-sec-butyl-1H-1,2,4-triazol-5(4H)-one], the “Proliferation (IC50/IC50 Itra)” value in the data set with HUVEC turned out to be 1.8. Besides, the “CYP3A4 Inhibition (compared to intracozanole at 1 um)” value at CYP3A4 is reported as “No inhibition”.

Turning to `CCC(C)n1ncn(-c2ccc(N3CCN(c4ccc(OC[C@@H]5CO[C@@](Cn6ccnc6C)(c6ccc(Cl)cc6Cl)O5)cc4)CC3)cc2)c1=O` (stereo partly drawn) [Compound 35, 1-sec-butyl-4-(4-(4-(4-(((2S,4R)-2-(2,4-dichlorophenyl)-2-((2-methyl-1H-imidazol-1-yl)methyl)-1,3-dioxolan-4-yl)methoxy)phenyl)piperazin-1-yl)phenyl)-1H-1,2,4-triazol-5(4H)-one], the “Proliferation (IC50/IC50 Itra)” value with HUVEC is recorded as 1.0. Besides, at CYP3A4, the “CYP3A4 Inhibition (compared to intracozanole at 1 um)” value was 0.85.

As to `CCC(C)n1ncn(-c2ccc(N3CCN(c4ccc(OC[C@@H]5CO[C@@](Cn6cnc(C)c6)(c6ccc(Cl)cc6Cl)O5)cc4)CC3)cc2)c1=O` (stereo partly drawn) [Compound 38, 1-sec-butyl-4-(4-(4-(4-(((2S,4R)-2-(2,4-dichlorophenyl)-2-((4-methyl-1H-imidazol-1-yl)methyl)-1,3-dioxolan-4-yl)methoxy)phenyl)piperazin-1-yl)phenyl)-1H-1,2,4-triazol-5(4H)-one], in the data set on HUVEC, the “Proliferation (IC50/IC50 Itra)” value came to 0.6. Further, on CYP3A4, the “CYP3A4 Inhibition (compared to intracozanole at 1 um)” value is recorded as 1.18.

Regarding `CCC(C)n1ncn(-c2ccc(N3CCN(c4ccc(OC[C@@H]5CO[C@@](Cn6cc(C(F)(F)F)nc6C)(c6ccc(Cl)cc6Cl)O5)cc4)CC3)cc2)c1=O` (stereo partly drawn) [Compound 39, 1-(sec-butyl)-4-(4-(4-(4-(((2S,4R)-2-(2,4-dichlorophenyl)-2-((2-methyl-4-(trifluoromethyl)-1H-imidazol-1-yl)methyl)-1,3-dioxolan-4-yl)methoxy)phenyl)piperazin-1-yl)phenyl)-1H-1,2,4-triazol-5(4H)-one], the “Proliferation (IC50/IC50 Itra)” value with HUVEC stood at 2.8. Further, at CYP3A4, the “CYP3A4 Inhibition (compared to intracozanole at 1 um)” value is “No inhibition”; the “CYP3A4 inhibition, in words” value is listed as “eliminated CYP3A4 inhibition”; the “CYP3A4 inhibition at 1 μM, in words” value is reported as “eliminated”.

`CCC(C)n1ncn(-c2ccc(N3CCN(c4ccc(OC[C@@H]5CO[C@@](Cn6cc(C)nc6C)(c6ccc(Cl)cc6Cl)O5)cc4)CC3)cc2)c1=O` (stereo partly drawn) [Compound 40, 1-(sec-butyl)-4-(4-(4-(4-(((2S,4R)-2-(2,4-dichlorophenyl)-2-((2,4-dimethyl-1H-imidazol-1-yl)methyl)-1,3-dioxolan-4-yl)methoxy)phenyl)piperazin-1-yl)phenyl)-1H-1,2,4-triazol-5(4H)-one]: the “Proliferation (IC50/IC50 Itra)” value in the data set with HUVEC is 3.1. Further, on CYP3A4, the “CYP3A4 Inhibition (compared to intracozanole at 1 um)” value came to 0.45.

On to `CCC(C)n1ncn(-c2ccc(N3CCN(c4ccc(OC[C@@H]5CO[C@@](Cn6c(C)cnc6C)(c6ccc(Cl)cc6Cl)O5)cc4)CC3)cc2)c1=O` (stereo partly drawn) [Compound 41, 1-(sec-butyl)-4-(4-(4-(4-(((2S,4R)-2-(2,4-dichlorophenyl)-2-((2,5-dimethyl-1H-imidazol-1-yl)methyl)-1,3-dioxolan-4-yl)methoxy)phenyl)piperazin-1-yl)phenyl)-1H-1,2,4-triazol-5(4H)-one], for which, in the data set with HUVEC, the “Proliferation (IC50/IC50 Itra)” value was found to be 4.5. Besides, the IC50 in the data set with HUVEC (Homo sapiens, HUVEC) came to 0.765 µM. In addition, the “CYP3A4 Inhibition (compared to intracozanole at 1 um)” value at CYP3A4 was 0.27.

As to `CCc1nccn1C[C@@]1(c2ccc(Cl)cc2Cl)OC[C@@H](COc2ccc(N3CCN(c4ccc(-n5cnn(C(C)CC)c5=O)cc4)CC3)cc2)O1` (stereo partly drawn) [Compound 43, 1-(sec-butyl)-4-(4-(4-(4-(((2S,4R)-2-(2,4-dichlorophenyl)-2-((2-ethyl-1H-imidazol-1-yl)methyl)-1,3-dioxolan-4-yl)methoxy)phenyl)piperazin-1-yl)phenyl)-1H-1,2,4-triazol-5(4H)-one], in the data set with HUVEC, the “Proliferation (IC50/IC50 Itra)” value is 1.4. The “CYP3A4 Inhibition (compared to intracozanole at 1 um)” value at CYP3A4 is 0.08.

Turning to `CCC(C)n1ncn(-c2ccc(N3CCN(c4ccc(OC[C@@H]5CO[C@@](Cn6ccnc6C(C)C)(c6ccc(Cl)cc6Cl)O5)cc4)CC3)cc2)c1=O` (stereo partly drawn) [Compound 45, 1-sec-butyl-4-(4-(4-(4-(((2S,4R)-2-(2,4-dichlorophenyl)-2-((2-isopropyl-1H-imidazol-1-yl)methyl)-1,3-dioxolan-4-yl)methoxy)phenyl)piperazin-1-yl)phenyl)-1H-1,2,4-triazol-5(4H)-one], in the data set with HUVEC, the “Proliferation (IC50/IC50 Itra)” value is 0.5. Besides, in the data set with HUVEC (Homo sapiens, HUVEC), the IC50 came out at 0.084 µM. Further, on CYP3A4, the “CYP3A4 Inhibition (compared to intracozanole at 1 um)” value is 0.07.

As to `CCC(C)n1ncn(-c2ccc(N3CCN(c4ccc(OC[C@@H]5CO[C@@](Cn6ccnc6-c6ccccc6)(c6ccc(Cl)cc6Cl)O5)cc4)CC3)cc2)c1=O` (stereo partly drawn) [Compound 46, 1-sec-butyl-4-(4-(4-(4-(((2S,4R)-2-(2,4-dichlorophenyl)-2-((2-phenyl-1H-imidazol-1-yl)methyl)-1,3-dioxolan-4-yl)methoxy)phenyl)piperazin-1-yl)phenyl)-1H-1,2,4-triazol-5(4H)-one], the “Proliferation (IC50/IC50 Itra)” value with HUVEC was 0.8. Besides, the “CYP3A4 Inhibition (compared to intracozanole at 1 um)” value at CYP3A4 is recorded as 0.27.

For `CCC(C)n1ncn(-c2ccc(N3CCN(c4ccc(OC[C@@H]5CO[C@@](Cn6nc(C)nc6C)(c6ccc(Cl)cc6Cl)O5)cc4)CC3)cc2)c1=O` (stereo partly drawn) [Compound 47, 1-sec-butyl-4-(4-(4-(4-(((2S,4R)-2-(2,4-dichlorophenyl)-2-((3,5-dimethyl-1H-1,2,4-triazol-1-yl)methyl)-1,3-dioxolan-4-yl)methoxy)phenyl)piperazin-1-yl)phenyl)-1H-1,2,4-triazol-5(4H)-one], the “Proliferation (IC50/IC50 Itra)” value in the data set on HUVEC is reported as 1.3. The IC50 in the data set with HUVEC (HUVEC) turned out to be 0.221 µM. Further, the IC50 with HUVEC (Homo sapiens, HUVEC) is 0.22 µM. On CYP3A4, the “CYP3A4 Inhibition (compared to intracozanole at 1 um)” value was found to be 0.32; the “CYP3A4 inhibition, in words” value is given as “weak inhibition”; the “CYP3A4 inhibition at 1 μM, in words” value is recorded as “no CYP3A4 inhibition”.

On to `CCC(C)n1ncn(-c2ccc(N3CCN(c4ccc(OC[C@@H]5CO[C@@](Cn6ncnn6)(c6ccc(Cl)cc6Cl)O5)cc4)CC3)cc2)c1=O` (stereo partly drawn) [Compound 49, 4-(4-(4-(4-(((2S,4R)-2-((2H-tetrazol-2-yl)methyl)-2-(2,4-dichlorophenyl)-1,3-dioxolan-4-yl)methoxy)phenyl)piperazin-1-yl)phenyl)-1-sec-butyl-1H-1,2,4-triazol-5(4H)-one], for which the “Proliferation (IC50/IC50 Itra)” value in the data set with HUVEC is recorded as 0.7. Moreover, in the data set with HUVEC (Homo sapiens, HUVEC), the IC50 was 0.124 µM. Besides, the “CYP3A4 Inhibition (compared to intracozanole at 1 um)” value on CYP3A4 worked out at 0.2.

Regarding `CCC(C)n1ncn(-c2ccc(N3CCN(c4ccc(OC[C@@H]5CO[C@@](Cn6cnc(C)n6)(c6ccc(Cl)cc6Cl)O5)cc4)CC3)cc2)c1=O` (stereo partly drawn) [Compound 50, 1-sec-butyl-4-(4-(4-(4-(((2S,4R)-2-(2,4-dichlorophenyl)-2-((3-methyl-1H-1,2,4-triazol-1-yl)methyl)-1,3-dioxolan-4-yl)methoxy)phenyl)piperazin-1-yl)phenyl)-1H-1,2,4-triazol-5(4H)-one], the “Proliferation (IC50/IC50 Itra)” value in the data set with HUVEC is listed as 1.6. For the same compound, on CYP3A4, the “CYP3A4 Inhibition (compared to intracozanole at 1 um)” value is on record as 0.36 and the “CYP3A4 inhibition, in words” value is reported as “reduced potency”.

As to `CCC(C)n1ncn(-c2ccc(N3CCN(c4ccc(OC[C@@H]5CO[C@@](Cn6cnc(C(F)(F)F)n6)(c6ccc(Cl)cc6Cl)O5)cc4)CC3)cc2)c1=O` (stereo partly drawn) [Compound 51, 1-sec-butyl-4-(4-(4-(4-(((2S,4R)-2-(2,4-dichlorophenyl)-2-((3-(trifluoromethyl)-1H-1,2,4-triazol-1-yl)methyl)-1,3-dioxolan-4-yl)methoxy)phenyl)piperazin-1-yl)phenyl)-1H-1,2,4-triazol-5(4H)-one], in the data set with HUVEC, the “Proliferation (IC50/IC50 Itra)” value turned out to be 1.6. Also, at CYP3A4, the “CYP3A4 Inhibition (compared to intracozanole at 1 um)” value is listed as “No inhibition” and the “CYP3A4 inhibition, in words” value is given as “reduced potency; also recorded: eliminated CYP3A4 inhibition”.

For the compound `CCC(C)n1ncn(-c2ccc(N3CCN(c4ccc(OC[C@@H]5CO[C@@](Cn6nnnc6C)(c6ccc(Cl)cc6Cl)O5)cc4)CC3)cc2)c1=O` (stereo partly drawn) [Compound 52, 1-sec-butyl-4-(4-(4-(4-(((2S,4R)-2-(2,4-dichlorophenyl)-2-((5-methyl-1H-tetrazol-1-yl)methyl)-1,3-dioxolan-4-yl)methoxy)phenyl)piperazin-1-yl)phenyl)-1H-1,2,4-triazol-5(4H)-one], the “Proliferation (IC50/IC50 Itra)” value with HUVEC was 0.6. For the same compound, the “CYP3A4 Inhibition (compared to intracozanole at 1 um)” value on CYP3A4 was 0.08.
